What was measured:
[1] = Cmax in C57BL/6 mouse plasma at 10 mg/kg, po measured upto 24 hrs post dosing by LC-MS/MS; assay type: ADME, organism-based; details: in vivo
Chikungunya virus = assay: Antiviral activity against CHIKV infected in C57BL/6 mouse assessed as footpad swelling at 300 mg/kg/day, ip measured after 6 days post infection (Rvb =40.9+/-12.4); assay type: functional; details: time 6 day
[2] = Toxicity in C57BL/6 mouse model assessed as effect on CREAT level at 300 mg/kg/day, ip measured after 6 days post infection (reference value: 0.39 to 0.43); assay type: organism-based; details: in vivo, 144 h, time 6 day
Cav1.2 = assay: Antagonist activity at hCav1.2 expressed in HEK293 cells by Electrophysiology; assay type: toxicity, cell-based; details: human, HEK293 cells expressing hCav1.2

Q: For CC1CCNc2c(C(=O)NC/C=C/S(C)(=O)=O)cccc21 (centres undefined), which Cmax [1] is on record?
A: 125 ng/mL

Q: And the Activity (Chikungunya virus)?
A: 14.1%

Q: And the Activity [2]?
A: 0.35 mg/dL

Q: And the IC50 (Cav1.2)?
A: > 100 µM

Reference: ChEMBL document CHEMBL6071156 (Eur J Med Chem, 2024)
